Broadly, the LD50 is the dose at which mortality reaches 50%. A higher LD50 goes with a less toxic substance.

Data set [1] relates to male spontaneously hypertensive rats (SHR). Briefly: Reduction of Blood Pressure (systolic, tail plethysmographic method, oral). Type of data set: in vivo, rat (SHR, Wister Kyoto). How it is done: Male spontaneously hypertensive rats (SHR, Wister Kyoto) weighing 300 to 350 g were used. Systolic blood pressure was measured indirectly by the tail plethysmographic method in conscious SHR, just prior to, and 1, 2, 4 and 6 hours after oral administration of test drugs. Test drugs, dissolved in deionized water, were administered orally in a volume of 10 ml-solution/kg-rat. Reduction in systolic blood pressure (ΔP, mmHg) was calculated by substracting a systolic blood pressure after administration from that just prior to administration.
Effect of the compounds of the present invention on reduction of blood pressure was examined according to the method as mentioned hereinbefore.

Data set [2] relates to mesenteric artery of a rabbit. Briefly: Relaxation of Mesenteric Artery (KCl-contracted spiral strip). The note with it: Oryctolagus cuniculus; concentration of the hydrochloride attaining 50% of complete relaxation; rabbit mesenteric artery contracted with KCl; read-out: ED50 (the source's name). Set-up: species or system rabbit of Japanese local variety. How it is done:
A rabbit of Japanese local variety weighing about 3 kg was subjected to blood-letting to death. Then, abdomen of the rabbit was dissected to pick up a mesenteric artery. […] Thus, the shrinkage and relaxation of the artery was ready to be measured as a load on the transducer. To the organ bath, KCl was added in an amount which makes the artery shrink at a half length that in 15 to 20 mM aqueous solution. Then, hydrochlorides of the compounds of the present invention were added to the organ bath to observe relaxation effect on the artery.
Effect of the compounds of the present invention on relaxation of mesenteric artery was examined according to the method as mentioned hereinbefore.

Data set [3] is described as follows: Acute Toxicity. The note with it: mouse, in vivo; ddY male mice. On the procedure:
Acute toxicity of the compounds of the present invention was determined according to the method given below, and the results are shown in Table 15. […] It is known from the results that the acute toxicity of the compounds of the present invention is satisfactorily low.
Using ddY male mice, acute toxicity of the compounds of the present invention was examined according to the method proposed by K. Takagi et al. (K. Takagi and H. Ozawa, "Experimental Techniques in Pharmacology," p200-206 (1960), NANZANDO CO., LTD.).
Acute toxicity test of the compounds of the present invention was effected according to the method as mentioned hereinbefore.

The structures appear in SMILES notation.

Turning to `N=C(N)NCCNS(=O)(=O)c1cccc2c(Cl)nccc12` [Compound (31), N-(2-guanidinoethyl)-1-chloro-5-isoquinolinesulfonamide], the “ΔPmax (maximally reduced blood pressure)” value in data set [1] (100 mg/kg) worked out at 40 mmHg. Also, the EC50 in data set [2] stood at 2 µM. The 50% lethal dose (LD50) in data set [3] was determined as 160 mg/kg.
Consider `CC1CN(C(=N)N)CCN1S(=O)(=O)c1cccc2c(Cl)nccc12` (stereo not shown) [Compound (45), 1-(1-chloro-5-isoquinolinesulfonyl)-4-amidino-2-methylpiperazine], for which the “ΔPmax (maximally reduced blood pressure)” value in data set [1] (100 mg/kg) is on record as 37 mmHg. For the same molecule, the EC50 in data set [2] amounted to 3 µM.
For `CC1CN(S(=O)(=O)c2cccc3c(Cl)nccc23)C(C)CN1C(=N)N` (stereo not shown) [Compound (46), 1-(1-chloro-5-isoquinolinesulfonyl)-4-amidino-2,5-dimethylpiperazine] the same measures were 41 mmHg and 5 µM.
Consider `NCCNS(=O)(=O)c1cccc2c(O)nccc12` [Compound (47), N-(2-aminoethyl)-1-hydroxy-5-isoquinolinesulfonamide], for which the “ΔPmax (maximally reduced blood pressure)” value in data set [1] (50 mg/kg) was determined as 43 mmHg. Further, the EC50 in data set [2] amounted to 10 µM.
Turning to `NCCCCNS(=O)(=O)c1cccc2c(O)nccc12` [Compound (48), N-(4-aminobutyl)-1-hydroxy-5-isoquinolinesulfonamide], the “ΔPmax (maximally reduced blood pressure)” value in data set [1] (100 mg/kg) amounted to 51 mmHg. The EC50 in data set [2] turned out to be 15 µM.
As to `CC(CN)NS(=O)(=O)c1cccc2c(O)nccc12` (stereo not shown) [Compound (49), N-(2-amino-1-methylethyl)-1-hydroxy-5-isoquinolinesulfonamide], the “ΔPmax (maximally reduced blood pressure)” value in data set [1] (50 mg/kg) was determined as 33 mmHg. Further, in data set [2], the EC50 is 14 µM.
For `CCCCC(CN)NS(=O)(=O)c1cccc2c(O)nccc12` (stereo not shown) [Compound (50), N-(1-aminomethylpentyl)-1-hydroxyl-5-isoquinolinesulfonamide], the “ΔPmax (maximally reduced blood pressure)” value in data set [1] (50 mg/kg) was found to be 28 mmHg. Besides, in data set [2], the EC50 turned out to be 7 µM.
The matching figures for `CC(C)C(N)CNS(=O)(=O)c1cccc2c(O)nccc12` (stereo not shown) [Compound (51), N-(2-amino-3-methylbutyl)-1-hydroxy-5-isoquinolinesulfonamide]: 71 mmHg and 20 µM.
As for `CCCCN(CCCC)CCCNS(=O)(=O)c1cccc2c(O)nccc12` [Compound (52), N-(3-di-n-butylaminopropyl)-1-hydroxy-5-isoquinolinesulfonamide], the “ΔPmax (maximally reduced blood pressure)” value in data set [1] (50 mg/kg) was determined as 65 mmHg. Besides, the EC50 in data set [2] was determined as 21 µM.
`CN(CCNS(=O)(=O)c1cccc2c(O)nccc12)C1CCCCC1` [Compound (53), N-[2-(N-cyclohexyl-N-methylamino)ethyl]-1-hydroxy-5-isoquinolinesulfonamide]: in data set [1] (50 mg/kg), the “ΔPmax (maximally reduced blood pressure)” value was determined as 56 mmHg. For the same molecule, the EC50 in data set [2] is 17 µM.
For `N=C(N)NCCNS(=O)(=O)c1cccc2c(O)nccc12` [Compound (54), N-(2-guanidinoethyl)-1-hydroxy-5-isoquinolinesulfonamide], the “ΔPmax (maximally reduced blood pressure)” value in data set [1] (100 mg/kg) was 40 mmHg. Besides, the EC50 in data set [2] stood at 18 µM. In data set [3], this molecule registered an LD50 of 135 mg/kg.
With `N=C(N)NCCCCNS(=O)(=O)c1cccc2c(O)nccc12` [Compound (55), N-(4-guanidinobutyl)-1-hydroxy-5-isoquinolinesulfonamide], in data set [1] (100 mg/kg), the “ΔPmax (maximally reduced blood pressure)” value turned out to be 38 mmHg. Also, in data set [2], the EC50 came out at 13 µM.
Consider `CC(CNC(=N)N)NS(=O)(=O)c1cccc2c(O)nccc12` (stereo not shown) [Compound (56), N-(2-guanidino-1-methylethyl)-1-hydroxy-5-isoquinolinesulfonamide], for which the “ΔPmax (maximally reduced blood pressure)” value in data set [1] (100 mg/kg) came out at 45 mmHg. Moreover, in data set [2], the EC50 was 14 µM.
The matching figures for `CCCCC(CNC(=N)N)NS(=O)(=O)c1cccc2c(O)nccc12` (stereo not shown) [Compound (57), N-(1-guanidinomethylpentyl)-1-hydroxy-5-isoquinolinesulfonamide]: 38 mmHg and 11 µM.
Take `CC(C)C(CNS(=O)(=O)c1cccc2c(O)nccc12)NC(=N)N` (stereo not shown) [Compound (58), N-(2-guanidino-3-methylbutyl)-1-hydroxy-5-isoquinolinesulfonamide]: in data set [1] (100 mg/kg), the “ΔPmax (maximally reduced blood pressure)” value is 41 mmHg. In addition, the EC50 in data set [2] was determined as 15 µM.
With `CC(CNC(=N)N)CNS(=O)(=O)c1cccc2c(O)nccc12` (stereo not shown) [Compound (59), N-(3-guanidino-2-methylpropyl)-1-hydroxy-5-isoquinolinesulfonamide], in data set [1] (100 mg/kg), the “ΔPmax (maximally reduced blood pressure)” value was found to be 52 mmHg. For the same molecule, in data set [2], the EC50 is 21 µM.
As to `CC(C)(CCNS(=O)(=O)c1cccc2c(O)nccc12)NC(=N)N` [Compound (60), N-(3-guanidino-3-methylbutyl)-1-hydroxy-5-isoquinolinesulfonamide], the “ΔPmax (maximally reduced blood pressure)” value in data set [1] (100 mg/kg) turned out to be 61 mmHg. Further, the EC50 in data set [2] worked out at 23 µM.
The matching figures for `CC1CN(S(=O)(=O)c2cccc3c(O)nccc23)CCN1` (stereo not shown) [Compound (61), 1-(1-hydroxy-5-isoquinolinesulfonyl)-3-methylpiperazine]: 48 mmHg and 17 µM.
The matching figures for `CCC1CN(S(=O)(=O)c2cccc3c(O)nccc23)CCN1` (stereo not shown) [Compound (62), 1-(1-hydroxy-5-isoquinolinesulfonyl)-3-ethylpiperazine]: 36 mmHg and 25 µM.
With `CC(C)CC1CN(S(=O)(=O)c2cccc3c(O)nccc23)CCN1` (stereo not shown) [Compound (63), 1-(1-hydroxy-5-isoquinolinesulfonyl)-3-isobutylpiperazine], the “ΔPmax (maximally reduced blood pressure)” value in data set [1] (100 mg/kg) was 48 mmHg. In addition, in data set [2], the EC50 was determined as 18 µM.
For the molecule `CC1CN(S(=O)(=O)c2cccc3c(O)nccc23)C(C)CN1` (stereo not shown) [Compound (64), 1-(1-hydroxy-5-isoquinolinesulfonyl)-2,5-dimethylpiperazine], the “ΔPmax (maximally reduced blood pressure)” value in data set [1] (100 mg/kg) was determined as 65 mmHg. In data set [2], the EC50 is 21 µM.
For `CN1CCN(S(=O)(=O)c2cccc3c(O)nccc23)CC1` [Compound (65), 1-(1-hydroxy-5-isoquinolinesulfonyl)-4-methylpiperazine] the same measures were 53 mmHg and 25 µM.
In the case of `N=C(N)N1CCN(S(=O)(=O)c2cccc3c(O)nccc23)CC1` [Compound (66), 1-(1-hydroxy-5-isoquinolinesulfonyl)-4-amidinopiperazine], in data set [1] (100 mg/kg), the “ΔPmax (maximally reduced blood pressure)” value turned out to be 43 mmHg. Also, the EC50 in data set [2] worked out at 4 µM.
The matching figures for `N=C(N)N1CCCN(S(=O)(=O)c2cccc3c(O)nccc23)CC1` [Compound (67), 1-(1-hydroxy-5-isoquinolinesulfonyl)-4-amidinohomopiperazine]: 44 mmHg and 6 µM.
Consider `CC1CN(C(=N)N)CCN1S(=O)(=O)c1cccc2c(O)nccc12` (stereo not shown) [Compound (68), 1-(1-hydroxy-5-isoquinolinesulfonyl)-4-amidino-2-methylpiperazine], for which the “ΔPmax (maximally reduced blood pressure)” value in data set [1] (100 mg/kg) stood at 48 mmHg. For the same molecule, in data set [2], the EC50 was determined as 9 µM.
Consider `CC1CN(S(=O)(=O)c2cccc3c(O)nccc23)C(C)CN1C(=N)N` (stereo not shown) [Compound (69), 1-(1-hydroxy-5-isoquinolinesulfonyl)-4-amidino-2,5-dimethylpiperazine], for which the “ΔPmax (maximally reduced blood pressure)” value in data set [1] (100 mg/kg) was 51 mmHg. Also, the EC50 in data set [2] was 8 µM.
For the molecule `CCCCCCNCCNS(=O)(=O)c1cccc2c(Cl)nccc12` [Compound (74), N-(2-hexylaminoethyl)-1-chloro-5-isoquinolinesulfonamide], in data set [1] (100 mg/kg), the “ΔPmax (maximally reduced blood pressure)” value was 45 mmHg. Moreover, in data set [2], the EC50 came to 2 µM.
The matching figures for `O=S(=O)(c1cccc2c(Cl)nccc12)N1CCCNCC1` [Compound (76), 1-(1-chloro-5-isoquinolinesulfonyl)homopiperazine]: 60 mmHg and 2 µM.
For `CCCCCCNCCNS(=O)(=O)c1cccc2c(O)nccc12` [Compound (81), N-(2-hexylaminoethyl)-1-hydroxy-5-isoquinolinesulfonamide] the same measures were 54 mmHg and 6 µM.
Take `N=C(N)NCCNS(=O)(=O)c1cccc2cnccc12` [compound 4, reference compound]: the median lethal dose (LD50) in data set [3] was determined as 48 mg/kg.

Source of the values: patent publication US4678783A, “Substituted isoquinolinesulfonyl compounds” (Asahi Kasei Kogyo Kabushiki Kaisha, priority 1984, dated 1987).
